Data taken from publication PMC5696560 (Bioorganic & Medicinal Chemistry Letters, 2017).
≈ marks a conversion by molar mass, not a printed value.

What was measured:
M.tb strain H37Rv [1] = experiment: MABA: inhibition of growth of M.tb H37Rv under aerobic (replicating) conditions; type: cell-based; conditions: Mycobacterium tuberculosis
[2] = Oral bioavailability in rats; conditions: BioDuro LLC
M.tb strain H37Rv [3] = experiment: LORA: inhibition of growth of M.tb H37Rv under non-replicating conditions; type: cell-based; conditions: Mycobacterium tuberculosis
Experimental: The compounds were evaluated for their inhibition of growth (measured as MIC90 values in µg/mL) against M.tb (strain H37Rv) under both replicating (MABA)[16] or non-replicating (LORA)[17] conditions. […] In a search for less lipophilic analogues, we prepared and evaluated compounds where this phenyl B-ring unit was replaced with different heterocycles of varying lipophilicity (Table 1).

For `COc1nc2ccc(Br)cc2cc1[C@@H](c1ccccc1)[C@@](O)(CCN(C)C)c1cccc2ccccc12` [Compound 1, bedaquiline, reference compound], the MIC90 (M.tb strain H37Rv [1]; H37RV) was 0.05 µg/mL (≈ 0.09 µM), the MIC (M.tb strain H37Rv [1]; M.tb H37Rv, replicating, read-out: MIC (MABA)) was 0.05 µM (≈ 0.0278 µg/mL) and the “F(%) oral bioavailability” value [2] was 70%. It also gave an MIC90 (M.tb strain H37Rv [3]) of 0.08 µg/mL (≈ 0.144 µM) and an MIC (M.tb strain H37Rv [3]; read-out: MIC (LORA)) of 0.08 µM (≈ 0.0444 µg/mL).
